The values that follow come from US5846988A, “Thiazolidine-4-carboxylic acid derivatives as cytoprotective agents” (Alcon Laboratories, Inc., priority 1997, dated 1998).

In one experiment the test system is bovine retinal pieces. The experiment in a line: Inhibition of lipid peroxide formation (TBARS) in hypoxic/reoxygenated bovine retinal pieces. Format: cell-based. The settings on record: Bos taurus, hypoxia 1 h, test agent added after 50 min, reoxygenation 1 h; for inhibition at 100 µM: 0.1 mM, read-out: % Inhibition of TBARS Production (0.1 mM); for IC50: read-out: IC50 (inhibition of TBARS production). On the procedure:
(§1) Evaluation of Cytoprotective Ability
Inhibition of lipid peroxide formation by representative compounds of the present invention as compared with the cysteine prodrug, 2-oxo-4-thiazolidine carboxylic acid, (Sigma Chemical Company, St Louis Mo.) is shown in Table 1 below. The cytoprotective effect of the compound was measured using bovine retinal pieces. Retinal tissues were incubated in hypoxic media for 1 h. After 50 min. of hypoxia the test agents were added to the media to allow 10 min. for the drug to diffuse into the tissue prior to reoxygenation. The vehicle by itself, was added to the non-drug group. Following the incubation period, tissue was reoxygenated for 1 h. Lipid peroxidation was assessed by the formation of thiobarbituric acid reacting substances (TBARS). The tissues were homogenized and added to the trichloroacetic acid-thiobarbituric acid reagent and heated in the presence of BHT. The homogenate was filtered and the absorbance of the supernant was measured spectrophotometrically. A double derivative technique was used to calculate the concentration of TBARS present in each sample. Quantiation was based on a molar extinction coefficient of 1.56×10^5.

Experiment [1] deals with excised pigmented rabbit lenses. The experiment in a line: Inhibition of lens changes caused by oxidative damage (diquat-exposed excised pigmented rabbit lenses; GSH loss and MDA formation). The experiment is classed as cell-based. To be noted: Oryctolagus cuniculus, 1 mM test compound, 1 mM diquat, 3 h at 37° C. On the procedure:
as §1
Inhibition of lens changes caused by oxidative damage by representative compounds of the present invention as compared with the cysteine prodrug, 2-oxo-4-thiazolidine carboxylic acid, (Sigma Chemical Company, St Louis Mo.) is shown in Table 2 below. The cytoprotective effect was measured using excised pigmented rabbit lenses exposed to diquat using the method of Bhuyan (Free Radical Biology & Medicine, volume 12, pages 251-261, 1992). Normal lenses were extracted from the eyes immediately after sacrificing the pigmented rabbits. The lens were incubated in modified Krebs-Ringers bicarbonate medium containing 1 mM diquat dibromide monohydrate (Imperial Chemical Industries Ltd., London) and the test compound (1 mM). A non-test drug containing group was used as control. The lenses were incubated for 3 h at 37° C. in a shaking water bath. At the end of the incubation period each lens was removed and homogenated. Glutathione (GSH) and maliondialdehyde (MDA) levels were established by treating the supernatant with trichloracetic acid to precipitate proteins, and then using aliquots of the TCA supernatant to determine glutathione and MDA levels according to standard procedures. Degree of protection was measured as inhibition of GSH loss and inhibition of malondialdehyde formation.

Where [2] appears, read: read-out: % Inhibition GSH loss.
[3] abbreviates: read-out: % Inhibition MDA formation.

Where two headings read alike, the source gives them in different places.

Consider `Cc1c(C)c2c(c(C)c1O)CCC(C)(C1N[C@H](C(=O)O)CS1)O2` (stereo partly drawn) [Example 2, (4R)-2-(6-hydroxy-2,5,7,8-tetramethyl-3,4-dihydro-2H-benzo[1,2-b]pyran-2-yl)-4-thiazolidine carboxylic acid], for which, in the experiment with bovine retinal pieces, the inhibition at 100 µM is 90% and the IC50 was 3 µM.
As for `O=C1NC(C(=O)O)CS1` (stereo not drawn) [2-oxo-4-thiazolidine carboxylic acid, reference compound], the inhibition at 1000 µM in experiment [1] (setting [2]) was 9.4%; in experiment [1] (setting [3]), 28%. Further, in the experiment on bovine retinal pieces, the inhibition at 100 µM is -38%.
As for `CC(C)(C)c1cc(C2N[C@H](C(=O)O)CS2)cc(C(C)(C)C)c1O` (stereo partly drawn) [Example 1, (4R)-2-(3,5-di-tert-butyl-4-hydroxyphenyl)-4-thiazolidine carboxylic acid], the inhibition at 1000 µM in experiment [1] (setting [2]) amounted to 40%. The inhibition at 1000 µM in experiment [1] (setting [3]) turned out to be 76%. In addition, in the experiment on bovine retinal pieces, the inhibition at 100 µM turned out to be 95% and the half-maximal inhibitory concentration (IC50) turned out to be 0.05 µM.

What is called inhibition is the drop in the measured response relative to a control, in per cent. For orientation: IC50 means the midpoint of a concentration-inhibition curve.
